Results on 15 compounds are retold here after US8450320B2, “Pyrrolopyrazinone inhibitors of kinases” (AbbVie Inc., priority 2010, dated 2013).

Some results are limits rather than exact numbers.

T1 sequence (O00311 whole entry): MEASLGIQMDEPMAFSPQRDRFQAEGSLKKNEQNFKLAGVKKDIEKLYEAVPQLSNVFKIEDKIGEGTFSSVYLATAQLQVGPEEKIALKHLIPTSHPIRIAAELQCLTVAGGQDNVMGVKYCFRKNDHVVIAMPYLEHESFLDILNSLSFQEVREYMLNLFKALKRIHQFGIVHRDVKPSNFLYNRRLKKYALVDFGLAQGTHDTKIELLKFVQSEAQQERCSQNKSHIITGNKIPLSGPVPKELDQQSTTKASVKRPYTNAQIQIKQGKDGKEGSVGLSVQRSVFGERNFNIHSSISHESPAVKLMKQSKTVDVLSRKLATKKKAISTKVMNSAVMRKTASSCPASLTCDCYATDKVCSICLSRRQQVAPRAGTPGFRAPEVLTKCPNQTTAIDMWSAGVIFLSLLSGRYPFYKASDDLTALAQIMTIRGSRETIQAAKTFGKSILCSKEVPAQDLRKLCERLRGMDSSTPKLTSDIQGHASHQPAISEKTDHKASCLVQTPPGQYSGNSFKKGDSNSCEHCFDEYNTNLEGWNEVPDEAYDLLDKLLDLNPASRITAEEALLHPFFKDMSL
T1 sequence (Q9UBU7 whole entry partner): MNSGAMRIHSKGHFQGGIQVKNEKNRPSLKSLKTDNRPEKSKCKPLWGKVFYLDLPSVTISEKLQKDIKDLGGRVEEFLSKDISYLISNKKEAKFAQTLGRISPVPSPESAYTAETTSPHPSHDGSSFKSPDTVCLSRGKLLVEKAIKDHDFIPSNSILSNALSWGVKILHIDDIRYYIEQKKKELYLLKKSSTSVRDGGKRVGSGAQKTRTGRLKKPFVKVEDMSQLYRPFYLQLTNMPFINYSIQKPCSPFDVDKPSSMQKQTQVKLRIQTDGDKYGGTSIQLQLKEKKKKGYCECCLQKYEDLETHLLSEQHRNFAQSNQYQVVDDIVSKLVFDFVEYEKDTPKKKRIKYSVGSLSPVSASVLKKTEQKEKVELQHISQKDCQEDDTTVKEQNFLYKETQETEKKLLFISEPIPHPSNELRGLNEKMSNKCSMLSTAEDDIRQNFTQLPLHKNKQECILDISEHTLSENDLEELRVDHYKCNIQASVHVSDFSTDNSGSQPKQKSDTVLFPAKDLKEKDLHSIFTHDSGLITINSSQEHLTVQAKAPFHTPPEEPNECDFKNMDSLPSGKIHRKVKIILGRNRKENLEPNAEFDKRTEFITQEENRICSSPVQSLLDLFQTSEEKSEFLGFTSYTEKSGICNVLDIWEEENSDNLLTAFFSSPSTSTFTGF

This experiment addresses T1, Cdc7 (BEV coexpressed huCDC7/DBF4) (Homo sapiens, UniProt O00311).
T1 construct: made in house; host or cells: BEV (baculovirus expression vector)
The experiment is described as follows: Cdc7 enzyme inhibition assay ([33P]-ATP, biotinylated peptide substrate, FlashPlate). It counts as biochemical. The settings on record: Ki generated from IC50 assuming ATP-competitive inhibition; 1 μM ATP, apparent ATP Km 0.7 μM. How it is done: This example describes the assays that may be used to identify compounds having kinase activity.
Cdc7 (BEV coexpressed huCDC7/DBF4) is prepared internally. Cdc7 assays are conducted as follows with final concentrations as listed. In 384-well v-bottom polypropylene plates, 6 μL compound (2% DMSO), is mixed with 6 μL of Cdc7 (2 ug/mL), and Jerini peptide substrate A-All (biotin-C6linker-TPSDSLIYDDGLS) (2 μM), followed by immediate initiation with 6 μL […] (1 μM, 20 mCi/μmol) using a reaction buffer comprising 25 mM HEPES, pH 7.5, 1 mM DTT, 10 mM MgCl2, 100 μM Na3VO4, 0.075 mg/ml Triton X-100. Reactions are quenched after 1 hr by the addition of 90 μL stop buffer (50 mM EDTA, 2M NaCl). 85 μL of the stopped reactions are transferred to 384-well streptavidin-coated plates (FlashPlate Plus, Perkin Elmer), incubated 30 minutes at room temperature and washed 3 times with 0.05% Tween-20/PBS using an ELX-405 automated plate washer (BioTek), and counted on a TopCount Scintillation Plate Reader (Packard). IC50 values are determined via non-linear regression fitting of enzyme inhibition data and corresponding Ki values are generated assuming ATP-competitive (equilibrium) inhibition and using the experimentally determined apparent ATP Km of 0.7 μM (as determined using the above assay condition, but varying ATP).
Table 1 depicts enzyme inhibition data (Ki) for exemplary compounds. In Table 1, “A” represents a Ki of less than 10 nM, “B” represents a Ki of between 10 nM and 100 nM, and “C” represents a Ki of greater than 100 nM.
For `CS(=O)(=O)NCc1ccc(Cc2c[nH]c(=O)c3cc(-c4c[nH]c5ncccc45)cn23)cc1` [Example 31, N-(4-{[1-oxo-7-(1H-pyrrolo[2,3-b]pyridin-3-yl)-1,2-dihydropyrrolo[1,2-a]pyrazin-4-yl]methyl}benzyl)methanesulfonamide], the Ki is less than 10 nM.
Turning to `CC(C)N1CCC(Nc2ccc(Cc3c[nH]c(=O)c4cc(-c5c[nH]c6ncccc56)cn34)cc2)CC1` [Example 32, 4-{4-[(1-isopropylpiperidin-4-yl)amino]benzyl}-7-(1H-pyrrolo[2,3-b]pyridin-3-yl)pyrrolo[1,2-a]pyrazin-1(2H)-one], the Ki was less than 10 nM.
The figure for `CN(C)CC(=O)Nc1cccc(Cc2c[nH]c(=O)c3cc(-c4c[nH]c5ncccc45)cn23)c1` [Example 33, N^2,N^2-dimethyl-N-(3-{[1-oxo-7-(1H-pyrrolo[2,3-b]pyridin-3-yl)-1,2-dihydropyrrolo[1,2-a]pyrazin-4-yl]methyl}phenyl)glycinamide] is less than 10 nM; for `CN(C)CC(=O)NCc1ccc(Cc2c[nH]c(=O)c3cc(-c4c[nH]c5ncccc45)cn23)cc1` [Example 34, N^2,N^2-dimethyl-N-(4-{[1-oxo-7-(1H-pyrrolo[2,3-b]pyridin-3-yl)-1,2-dihydropyrrolo[1,2-a]pyrazin-4-yl]methyl}benzyl)glycinamide] it is less than 10 nM; for `CCC(CC)Nc1ccc(Cc2c[nH]c(=O)c3cc(-c4c[nH]c5ncccc45)cn23)cc1` [Example 35, 4-[4-(pentan-3-ylamino)benzyl]-7-(1H-pyrrolo[2,3-b]pyridin-3-yl)pyrrolo[1,2-a]pyrazin-1(2H)-one] it is 10 to 100 nM.
The figure for `CN(C)Cc1ccc(Cc2c[nH]c(=O)c3cc(-c4c[nH]c5ncccc45)cn23)cc1` [Example 36, 4-{4-[(dimethylamino)methyl]benzyl}-7-(1H-pyrrolo[2,3-b]pyridin-3-yl)pyrrolo[1,2-a]pyrazin-1(2H)-one] is less than 10 nM.
For the compound `NCc1ccc(Cc2c[nH]c(=O)c3cc(-c4c[nH]c5ncccc45)cn23)cc1` [Example 37, 4-[4-(aminomethyl)benzyl]-7-(1H-pyrrolo[2,3-b]pyridin-3-yl)pyrrolo[1,2-a]pyrazin-1(2H)-one], the Ki was less than 10 nM.
The figure for `CS(=O)(=O)Nc1ccc(Cc2c[nH]c(=O)c3cc(-c4c[nH]c5ncccc45)cn23)cc1` [Example 38, N-(4-{[1-oxo-7-(1H-pyrrolo[2,3-b]pyridin-3-yl)-1,2-dihydropyrrolo[1,2-a]pyrazin-4-yl]methyl}phenyl)methanesulfonamide] is less than 10 nM.
Consider `CC(Nc1ccc(Cc2c[nH]c(=O)c3cc(-c4c[nH]c5ncccc45)cn23)cc1)C1CC1` (stereo not drawn) [Example 39, 4-{4-[(1-cyclopropylethyl)amino]benzyl}-7-(1H-pyrrolo[2,3-b]pyridin-3-yl)pyrrolo[1,2-a]pyrazin-1(2H)-one], for which the Ki was less than 10 nM.
Consider `CN1CCCC(C(=O)Nc2ccc(Cc3c[nH]c(=O)c4cc(-c5c[nH]c6ncccc56)cn34)cc2)C1` (stereo not drawn) [Example 40, 1-methyl-N-(4-{[1-oxo-7-(1H-pyrrolo[2,3-b]pyridin-3-yl)-1,2-dihydropyrrolo[1,2-a]pyrazin-4-yl]methyl}phenyl)piperidine-3-carboxamide], for which the Ki was less than 10 nM.
Take `CN(C)c1cccc(Cc2c[nH]c(=O)c3cc(-c4c[nH]c5ncccc45)cn23)c1` [Example 41, 4-[3-(dimethylamino)benzyl]-7-(1H-pyrrolo[2,3-b]pyridin-3-yl)pyrrolo[1,2-a]pyrazin-1(2H)-one]: the Ki is less than 10 nM.
Regarding `O=C(Nc1ccc(Cc2c[nH]c(=O)c3cc(-c4c[nH]c5ncccc45)cn23)cc1)c1ccccc1` [Example 42, N-(4-{[1-oxo-7-(1H-pyrrolo[2,3-b]pyridin-3-yl)-1,2-dihydropyrrolo[1,2-a]pyrazin-4-yl]methyl}phenyl)benzamide], the Ki was less than 10 nM.
On to `CS(=O)(=O)Nc1ccc(C(=O)c2c[nH]c(=O)c3cc(-c4c[nH]c5ncccc45)cn23)cc1` [Example 43, N-(4-{[1-oxo-7-(1H-pyrrolo[2,3-b]pyridin-3-yl)-1,2-dihydropyrrolo[1,2-a]pyrazin-4-yl]carbonyl}phenyl)methanesulfonamide], for which the Ki is less than 10 nM.
On to `NC1CCC(NCc2ccc(Cc3c[nH]c(=O)c4cc(-c5c[nH]c6ncccc56)cn34)cc2)CC1` (stereo not drawn) [Example 44, 4-(4-{[(4-aminocyclohexyl)amino]methyl}benzyl)-7-(1H-pyrrolo[2,3-b]pyridin-3-yl)pyrrolo[1,2-a]pyrazin-1(2H)-one], for which the Ki is less than 10 nM.
On to `CC(=O)NCc1ccc(Cc2c[nH]c(=O)c3cc(-c4c[nH]c5ncccc45)cn23)cc1` [Example 45, N-(4-{[1-oxo-7-(1H-pyrrolo[2,3-b]pyridin-3-yl)-1,2-dihydropyrrolo[1,2-a]pyrazin-4-yl]methyl}benzyl)acetamide], for which the Ki was more than 100 nM.
